IC50 data for 18 molecules are collected here from patent US5696108A, “Protein kinase C inhibitors” (Eli Lilly and Company, priority 1996, dated 1997).

The structures appear in SMILES notation. Structures can show the parent of a compound that is named as a salt. Where only a bound is given, the exact number is not on record here.

Holding throughout (settings): Table 1
Test [1] addresses T1, cAMP-dependent kinase catalytic subunit (Bos taurus, UniProt P00517).
T1 construct: purchased Sigma, St. Louis, Mo; host or cells: bovine heart
The experiment in a line: cAMP-Dependent protein Kinase Catalytic Subunit Assay. The class given is biochemical, bovine. On the procedure:
cAMP-Dependent protein Kinase Catalytic Subunit Assay (PEA) The Assay components are in a total volume of 250 μL: 20 mM HEPES (Sigma, St. Louis, Mo.) buffer pH 7.5, 200 μg/mL histone type HL (Worthington), 10 mM magnesium chloride (Sigma, St. […] The reaction is initiated by addition of bovine heart cAMP-dependent kinase catalytic subunit (Sigma, St. Louis, Mo.), incubated to 30° C. for 10 minutes and stopped by adding 0.5 mL ice cold Trichloroacetic acid (Amresco) followed by 100 μL of 1 mg/mL bovine serum albumin (Sigma). The precipitate is collected by vacuum filtrated on glass fiber filters employing a TOMTEC™ and quantified by counting in a beta scintillation counter. This assay is done identical to the protein kinase C (PKC) enzyme assay except that no phospholipids or diacylglycerol are employed in the assay and the histone substrate is specific for the cAMP-dependent catalytic subunit enzyme.

The target of the next test is T2, casein protein kinase II (Rattus norvegicus, UniProt P19139).
T2 construct: isolated from rat brain homogenate; from tissue; host or cells: rat brain homogenate
T2 sequence (P19139 whole entry): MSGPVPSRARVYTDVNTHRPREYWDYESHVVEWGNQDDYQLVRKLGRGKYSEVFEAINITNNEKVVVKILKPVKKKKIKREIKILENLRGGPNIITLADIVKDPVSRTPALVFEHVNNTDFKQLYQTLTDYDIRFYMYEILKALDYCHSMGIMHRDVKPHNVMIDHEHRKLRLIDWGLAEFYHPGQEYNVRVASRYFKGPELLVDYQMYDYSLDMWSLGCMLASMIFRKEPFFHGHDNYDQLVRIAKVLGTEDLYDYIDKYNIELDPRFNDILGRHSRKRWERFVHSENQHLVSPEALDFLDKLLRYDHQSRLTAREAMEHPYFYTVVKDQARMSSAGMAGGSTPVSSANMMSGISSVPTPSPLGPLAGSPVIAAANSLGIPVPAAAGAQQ
T2 sequence (P67874 2-215 partner limits assumed): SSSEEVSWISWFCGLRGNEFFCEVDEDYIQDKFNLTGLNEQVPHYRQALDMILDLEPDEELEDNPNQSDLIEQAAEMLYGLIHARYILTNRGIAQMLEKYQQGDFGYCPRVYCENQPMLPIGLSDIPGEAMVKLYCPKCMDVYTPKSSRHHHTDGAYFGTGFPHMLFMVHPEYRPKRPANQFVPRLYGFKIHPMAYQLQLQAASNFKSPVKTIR
The experiment in a line: Casein Protein Kinase II Assay (CK-II). The class given is biochemical. On the procedure: Casein Protein Kinase II Assay (CK-II)
The Casein Protein Kinase II Assay is described in Neurochem. […] The assay components are in a total volume of 250 μL: 20 mM Tris-HCl, pH 7.5, 5 mM sodium fluoride, 50 mg/mL Casein (Sigma, St. Louis, Mo.), 10 mM magnesium chloride (Sigma, St. Louis, Mo.), 10 μL DMSO or DMSO/inhibitor and 30 μm (gamma-32P) ATP (DuPont). Initiation of the reaction is performed by addition of casein protein kinase II (isolated from rat brain homogenate), incubated at room temperature for 10 minutes and stopped by the addition of 0.5 mL ice cold Trichloroacetic acid (Amresco) followed by 100 μL of 1 mg/mL bovine serum albumin (Sigma, St. Louis, Mo.). The precipitate is collected by vacuum filtration on glass fiber filters and quantified by counting in a beta scintillation counter.
Assay components in order of addition
10 μL or DMSO or DMSO/inhibitor
25 μL of AT32P in 300 μM magnesium chloride
40 μL of enzyme (undiluted)
Buffer prepared as follows:
(Final volume=3.5 mL: amount of 20 assays)

Test [2] addresses calcium calmodulin dependent protein kinase. The experiment in a line: Calcium Calmodulin Dependent Protein Kinase Assay (CAM). The class given is biochemical, rat. On the procedure: Calcium Calmodulin Dependent Protein Kinase Assay (CAM)
The reaction is initiated by the addition of calcium calmodulin dependent protein kinase (isolated from rat brain homogenate), incubated at room temperature for 10 minutes and stopped by adding 0.5 mL ice cold trichloroacetic acid (Amresco) followed by 100 μL of 1 mg/mL bovine serum albumin (Sigma, St. Louis, Mo.). The precipitate is collected by vacuum filtration on glass fiber filters and quantified by counting in a beta scintillation counter.
25 μL calmodulin (250 μg/mL)
10 μL DMSO or DMSO/inhibitor

A further test deals with PKC-β1 (Homo sapiens, UniProt P05771). Nature of the test: PKC Enzyme Assay, beta-1 isozyme. The class given is biochemical. On the procedure:
(§1) PKC enzymes=alpha, beta I, beta II, gamma, delta, epsilon, eta and zeta.
(§2) Assay components in a total volume of 250 μL are as follows:
(§3) For all the enzymes either histone type HL (Worthington) or myelin basic protein is used as substrate. The assay is started by addition of protein kinase C enzyme incubated at 30° C. for 10 minutes and stopped by adding 0.5 mL of cold trichloroacetic acid (Amresco) followed by 100 μL of 1 mg/mL bovine serum albumin (Sigma, St. Louis, Mo.). The precipitate is collected by vacuum filtration on glass fiber filters employing a TOMTEC™ filtration system and quantified by counting in a beta scintillation counter.

In a further test the target is PKC-α (Homo sapiens, UniProt P17252). Nature of the test: PKC Enzyme Assay, alpha isozyme. The class given is biochemical. The method, then: as §1, §2, §3
For another test, the target named is T3, src (Homo sapiens, UniProt P12931).
T3 construct: purchased Onogene Science, Inc. PK02 and PK03
T3 sequence (P12931 whole entry, species assumed): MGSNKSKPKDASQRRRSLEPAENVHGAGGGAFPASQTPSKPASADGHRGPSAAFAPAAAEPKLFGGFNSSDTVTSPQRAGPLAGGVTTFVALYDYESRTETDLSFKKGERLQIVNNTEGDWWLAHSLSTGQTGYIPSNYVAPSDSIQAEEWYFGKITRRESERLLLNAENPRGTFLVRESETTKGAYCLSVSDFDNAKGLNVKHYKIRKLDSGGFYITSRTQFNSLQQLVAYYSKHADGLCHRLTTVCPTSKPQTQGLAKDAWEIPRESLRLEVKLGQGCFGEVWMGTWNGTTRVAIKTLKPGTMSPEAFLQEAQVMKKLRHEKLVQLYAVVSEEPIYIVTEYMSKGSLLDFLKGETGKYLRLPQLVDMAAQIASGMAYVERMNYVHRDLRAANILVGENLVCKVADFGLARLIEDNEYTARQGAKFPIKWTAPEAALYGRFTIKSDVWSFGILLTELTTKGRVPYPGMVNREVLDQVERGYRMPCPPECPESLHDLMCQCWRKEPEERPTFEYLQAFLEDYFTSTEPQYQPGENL
Nature of the test: Protein Tyrosine Kinase Assay (src). The class given is biochemical. The method, then: Protein Tyrosine Kinase Assay (src)
The Assay components are the following:
4 μL DMSO or DMSO/inhibitor

The target in the next test is PKC-β2 (Homo sapiens, UniProt P05771). Nature of the test: PKC Enzyme Assay, beta-2 isozyme. The class given is biochemical. The method, then:
as §1, §2, §3

PKC-β1, sequence (P05771 whole entry): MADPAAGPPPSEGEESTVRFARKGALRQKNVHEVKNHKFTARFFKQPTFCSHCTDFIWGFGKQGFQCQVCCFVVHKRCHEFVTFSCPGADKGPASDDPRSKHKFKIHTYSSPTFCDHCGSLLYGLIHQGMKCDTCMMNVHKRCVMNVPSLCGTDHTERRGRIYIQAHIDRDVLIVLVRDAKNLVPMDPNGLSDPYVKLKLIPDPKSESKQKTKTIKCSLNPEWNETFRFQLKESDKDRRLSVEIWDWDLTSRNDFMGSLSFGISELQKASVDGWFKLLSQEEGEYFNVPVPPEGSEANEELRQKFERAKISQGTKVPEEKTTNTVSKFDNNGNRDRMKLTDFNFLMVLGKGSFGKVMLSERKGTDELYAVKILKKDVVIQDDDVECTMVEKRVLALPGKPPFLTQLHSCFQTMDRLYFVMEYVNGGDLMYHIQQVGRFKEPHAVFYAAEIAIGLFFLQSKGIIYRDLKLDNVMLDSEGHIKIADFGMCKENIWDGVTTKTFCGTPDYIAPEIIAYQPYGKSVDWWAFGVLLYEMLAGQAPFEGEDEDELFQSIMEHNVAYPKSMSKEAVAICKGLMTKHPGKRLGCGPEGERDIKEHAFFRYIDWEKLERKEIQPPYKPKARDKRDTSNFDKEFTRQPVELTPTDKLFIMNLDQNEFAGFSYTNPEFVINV
PKC-β2, sequence (P05771 1-673 isoform P05771-2): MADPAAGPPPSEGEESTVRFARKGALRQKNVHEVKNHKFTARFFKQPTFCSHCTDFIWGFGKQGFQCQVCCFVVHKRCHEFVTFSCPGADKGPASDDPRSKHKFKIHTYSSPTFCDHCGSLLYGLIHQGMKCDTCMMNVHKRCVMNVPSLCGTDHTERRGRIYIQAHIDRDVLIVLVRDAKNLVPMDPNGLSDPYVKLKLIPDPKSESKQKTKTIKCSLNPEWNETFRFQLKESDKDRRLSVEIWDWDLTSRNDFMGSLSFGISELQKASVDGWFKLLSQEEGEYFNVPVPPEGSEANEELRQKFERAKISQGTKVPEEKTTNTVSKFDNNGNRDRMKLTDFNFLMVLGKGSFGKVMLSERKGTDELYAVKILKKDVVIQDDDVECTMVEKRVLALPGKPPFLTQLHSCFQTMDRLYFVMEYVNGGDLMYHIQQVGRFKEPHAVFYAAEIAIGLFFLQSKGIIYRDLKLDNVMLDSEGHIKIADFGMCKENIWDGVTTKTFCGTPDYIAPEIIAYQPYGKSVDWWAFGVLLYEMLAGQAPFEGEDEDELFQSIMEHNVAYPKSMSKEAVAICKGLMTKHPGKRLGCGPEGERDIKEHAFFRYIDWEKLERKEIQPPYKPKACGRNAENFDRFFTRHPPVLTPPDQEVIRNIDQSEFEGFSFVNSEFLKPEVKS

A word on the IC50: it is the point on the concentration scale where inhibition reaches its midpoint. Take `O=C1NC(=O)C2=C1c1cn(c3ccccc13)CCCC(COCc1ccccc1)CCn1cc2c2ccccc21` (racemic) [Example 30, (±)-3,4-[(N,N'-1,1'-(3"-(benzyloxymethylene)hexane)-bis-(3,3'-indolyl)]-1H-pyrrole-2,5-dione]: the IC50 in test [1] is greater than 100 µM; at casein protein kinase II, greater than 10 µM; in test [2], greater than 10 µM; on PKC-β1, 1000 nM; against PKC-α it was greater than 100000 nM; on src, greater than 100 µM. The molecule further gave an IC50 against PKC-β2 of 2000 nM.
Turning to `O=C1NC(=O)C2=C1c1cn(c3ccccc13)CCCOC(CO)CCn1cc2c2ccccc21` (centres unmarked) [Example 2, 3,4-[(N,N'-1,1')-((3"-propoxy)-3'"(O)-4'"(hydroxy)butane)-bis-(3,3'-indolyl)]-1(H)-pyrrole-2,5-dione], the IC50 in test [1] was greater than 100 µM; on casein protein kinase II it was greater than 100 µM; in test [2], greater than 100 µM; against PKC-β1, 400 nM; against PKC-α, 4000 nM; against src, greater than 100 µM. Also, the IC50 against PKC-β2 stood at 200 nM.
The molecule `O=C1NC(=O)C2=C1c1cn(c3ccccc13)CCOC(CO)CCn1cc2c2ccccc21` (centres unmarked) [Example 3] had an IC50 at src greater than 100 µM.
With `NCC1CCn2cc(c3ccccc32)C2=C(C(=O)NC2=O)c2cn(c3ccccc23)CCO1` (centres unmarked) [Example 4, 3,4-[(N,N'-1,1'-((2'"-ethoxy)-3'"(O)-4'"-(amino)-butane)-bis-(3,3'-indolyl)]-1(H)-pyrrole-2,5-dione trifluoroacetate salt], the IC50 against casein protein kinase II is greater than 100 µM; in test [2] it was 3 µM; at PKC-β1, 20 nM; against PKC-α, 300 nM; on src, 37 µM; at PKC-β2, 8 nM.
As to `NC[C@H]1CCn2cc(c3ccccc32)C2=C(C(=O)NC2=O)c2cn(c3ccccc23)CCO1` [Example 4r], the IC50 in test [1] was greater than 100 µM; against casein protein kinase II it was greater than 100 µM; in test [2], 0.69 µM; at PKC-β1, 5 nM; at PKC-α, 300 nM; on src, 33 µM. Moreover, the IC50 against PKC-β2 came to 21 nM.
Regarding `NC[C@@H]1CCn2cc(c3ccccc32)C2=C(C(=O)NC2=O)c2cn(c3ccccc23)CCO1` [Example 4s], the IC50 is greater than 100 µM in test [1]; greater than 100 µM at casein protein kinase II; 2.5 µM in test [2]; 48 nM against PKC-β1; 1300 nM on PKC-α; 63 µM at src. The IC50 against PKC-β2 stood at 33 nM.
Consider `NCC1CCn2cc(c3ccccc32)C2=C(C(=O)NC2=O)c2cn(c3ccccc23)CCCO1` (centres unmarked) [Example 9], for which the IC50 in test [1] is greater than 100 µM; at casein protein kinase II it was greater than 100 µM; in test [2], 26 µM; on PKC-β1, 350 nM; against PKC-α, 3000 nM; against src, 58 µM. This molecule also yielded an IC50 against PKC-β2 of 160 nM.
As to `O=C1NC(=O)C2=C1c1cn(c3ccccc13)CCO[C@@H](CN1CCCC1)CCn1cc2c2ccccc21` [Example 20r], the IC50 in test [1] is greater than 100 µM; against casein protein kinase II, greater than 100 µM; in test [2], 7.3 µM; on PKC-α, 890 nM; on src, 74 µM.
As for `O=C1NC(=O)C2=C1c1cn(c3ccccc13)CCO[C@H](CN1CCCC1)CCn1cc2c2ccccc21` [Example 20s], the IC50 is greater than 100 µM in test [1]; greater than 100 µM on casein protein kinase II; 6.7 µM in test [2]; 3000 nM against PKC-α; 16 µM at src.
With `O=C1NC(=O)C2=C1c1cn(c3ccccc13)CCO[C@@H](CNS(=O)(=O)c1ccccc1)CCn1cc2c2ccccc21` [Example 21r], the IC50 in test [1] was greater than 100 µM; on casein protein kinase II, greater than 100 µM; on PKC-β1, 180 nM; against PKC-α, 68000 nM; against src it was greater than 100 µM; against PKC-β2, 50 nM.
Take `O=C1NC(=O)C2=C1c1cn(c3ccccc13)CCCCCCn1cc2c2ccccc21` [Example 28, 3,4-[(N,N'-1,1'-hexane)-bis-(3,3'-indolyl)]-1H-pyrrole-2,5-dione]: the IC50 against casein protein kinase II was greater than 100 µM; in test [2], 2 µM; on PKC-β1, 70 nM; against PKC-α, 1000 nM; at src, greater than 100 µM; against PKC-β2, 80 nM.
`NCC1CCCn2cc(c3ccccc32)C2=C(C(=O)NC2=O)c2cn(c3ccccc23)CC1` (centres unmarked) [Example 33, 3,4-[(N,N'-1,1'-(3"-aminomethylene)-hexane)-bis-(3,3'-indolyl)]-1H-pyrrole-2,5-dione]: the IC50 was 0.6 µM in test [2]; 50 nM at PKC-β1; 400 nM at PKC-α; 61 µM on src; 40 nM against PKC-β2.
In the case of `O=C1NC(=O)C2=C1c1cn(c3ccccc13)CCCC(CNCc1ccccc1)CCn1cc2c2ccccc21` (centres unmarked) [Example 34, 3,4-[(N,N'-1,1'-(3"-(N-benzylamino)methylene)-hexane)-bis-(3,3'-indolyl)]-1H-pyrrole-2,5-dione trifluoroacetate salt], the IC50 at casein protein kinase II was greater than 100 µM; in test [2], 4 µM; on PKC-β1, 100 nM; against PKC-α it was 1000 nM; at src it was greater than 100 µM; on PKC-β2, 100 nM.
`O=C1NC(=O)C2=C1c1cn(c3ccccc13)CCCC(CN(Cc1ccccc1)Cc1ccccc1)CCn1cc2c2ccccc21` (centres unmarked) [Example 35, 3,4-[(N,N'-1,1 '-(3"-(N,N-dibenzylamino)methylene)-hexane)-bis-(3,3'-indolyl)]-1H-pyrrole-2,5-dione trifluoroacetate salt]: the IC50 on casein protein kinase II is greater than 100 µM; in test [2] it was 82 µM; against PKC-β1, 3000 nM; at PKC-α, 9000 nM; against src it was greater than 100 µM; at PKC-β2, 2000 nM.
Regarding `CN(C)CC1CCCn2cc(c3ccccc32)C2=C(C(=O)NC2=O)c2cn(c3ccccc23)CC1` (centres unmarked) [Example 40], the IC50 is greater than 100 µM in test [1]; greater than 100 µM on casein protein kinase II; 5 µM in test [2]; 600 nM on PKC-α; 4.4 µM against src.
As to `CN(C)C[C@@H]1CCCn2cc(c3ccccc32)C2=C(C(=O)NC2=O)c2cn(c3ccccc23)CC1` [Example 40r, (R)-3,4-[(N,N'-1,1'-(3"-(N,N-dimethylamino)methylene)-hexane)-bis-(3,3'-indolyl)]-1H-pyrrole-2,5-dione hydrochloride salt], the IC50 in test [1] is greater than 100 µM; on casein protein kinase II it was greater than 100 µM; in test [2] it was 8 µM; against PKC-α, 300 nM; against src, 71 µM.
Take `O=C1NC(=O)C2=C1c1cn(c3ccccc13)CCCC(Cn1ccnc1)CCn1cc2c2ccccc21` (centres unmarked) [Example 41, 3,4-[(N,N'-1,1'-(3"-(N-imidazole)methylene)-hexane)-bis-(3,3'-indolyl)]-1H-pyrrole-2,5-dione]: the IC50 at casein protein kinase II is greater than 100 µM; in test [2] it was 3 µM; against PKC-α, 300 nM; against src it was 91 µM.
For `O=C1NC(=O)C2=C1c1cn(c3ccccc13)CCCCCn1cc2c2ccccc21` [Example 43], the IC50 against casein protein kinase II is greater than 100 µM; in test [2] it was 0.6 µM; at PKC-β1 it was 40 nM; at PKC-α, 400 nM; against src, greater than 100 µM; against PKC-β2, 30 nM.
